Laboratory results published in PMC8734228 (Cancer discovery, 2021).
Where two headings read alike, the source gives them in different places.

Tests used:
FLC1,3,5 cells = experiment: Synergy assay, combination matrix with panobinostat; format: cell-based, human
FLC PDX cells = experiment: Validation screen on cells dissociated from FLC PDX; format: cell-based, human; details: for Effect on FLC PDX cells in vitro (dose response, normalized percent survival): 10nM-10μM, FLC1-6; for Effect on FLC PDX cells in vitro (dose response, normalized percent survival) / EC50: 72 h; for Efficacy ranking in the screen: ranked by average −log10EC50 for FLC1-5 minus −log10EC50 for PHH; for Therapeutic window for FLC over PHH: FLC PDX cells compared with PHH
ErbB2 = details: read-out: IC50 ErbB2; cited from earlier work
FLC3 PDX cells = experiment: Validation screen, 11-point dose response, 72 h, Cell Titer Glo; format: cell-based, human; details: read-out: EC50 FLC
FLC5 PDX cells = experiment: as above; format: cell-based, human; details: read-out: EC50 FLC
FLC1 PDX cells = experiment: as above; format: cell-based, human; details: read-out: EC50 FLC
FLC2 PDX cells = experiment: as above; format: cell-based, human; details: read-out: EC50 FLC
[1] = tested on: primary human hepatocytes (PHH); experiment: Validation counter-screen on primary human hepatocytes; details: 72 h; for EC50: read-out: EC50 PHH; for Effect on PHH (dose response, normalized percent survival): up to 10 μM
FLC4 PDX cells = experiment: Validation screen, 11-point dose response, 72 h, Cell Titer Glo; format: cell-based, human; details: read-out: EC50 FLC
FLC5 cells = experiment: Anchor screen, synergy assay; format: cell-based, human; details: FLC5, ZIP, Bliss and HSA scores
AURKA = details: read-out: IC50 AURKA; cited from earlier work
PKG = details: read-out: Ki against other kinases: PKG; cited from earlier work
PKA = details: read-out: Ki PKA; cited from earlier work
[2] = tested on: cells dissociated directly from patient tumors (FLC.T6-T11); experiment: Direct from patient in vitro screening; format: cell-based, human; details: for Sensitivity of cells tested directly from patients: 10μM-10nM, 72h, Cell Titer Glo; for Drug sensitivity of FLC.T6 compared with derived PDX FLC6 (EC50): cells direct from patient tumor vs cells from its PDX
FLC1 cells = experiment: Role of ROS: survival with or without N-acetyl cysteine 10mM; format: cell-based, human; details: NAC 10mM, 72 h
Akt1 = details: read-out: Ki against other kinases: Akt1; cited from earlier work
Akt3 = details: read-out: Ki against other kinases: Akt3; cited from earlier work
[3] = tested on: eIF4F sensitive proteins in FLC6 cells; experiment: Immunoblot of eIF4F sensitive protein levels; format: cell-based, human
FLC1 PDX = experiment: In vivo drug testing in mice bearing PDX FLC1
FLC PDX = experiment: In vivo drug testing of HDAC inhibitors in mice bearing PDX
[4] = tested on: cells dissociated from PDX FLC1 and FLC5; experiment: Primary high throughput screen, 1μM, 72 h; format: cell-based, human; details: pass = survival <60%
[5] = napabucasin 10mg/kg IP, 5 days on 2 days off, FLC1
[6] = napabucasin 10mg/kg IP, 14 days
[7] = napabucasin 10mg/kg, after 14 days

Cc1c(-c2ccc(N3CCc4cccc(C(=O)Nc5nc6ccccc6s5)c4C3)nc2C(=O)O)cnn1CC12CC3CC(CC(C3)C1)C2 [A1331852]
Synergy with panobinostat (ZIP synergy score) (FLC1,3,5 cells): synergized

Cc1c2c(nn1C)CSCc1cc(n(C)n1)CSc1cc(c3ccccc3c1)OCCCc1c(C(=O)O)n(C)c3c-2c(Cl)ccc13 [AZD5991]
Synergy with panobinostat (ZIP synergy score) (FLC1,3,5 cells): more modest synergy

COCC(=O)NC/C=C/c1ccc2ncnc(Nc3ccc(Oc4ccc(C)nc4)c(C)c3)c2c1 [CP-724714]
Effect on FLC PDX cells in vitro (dose response, normalized percent survival) (FLC PDX cells): no effect | IC50 (ErbB2): 0.01 µM

NC1(C(=O)N[C@@H](CCO)c2ccc(Cl)cc2)CCN(c2nc[nH]c3nccc2-3)CC1 [Capivasertib (AZD5363), Capivasertib]
EC50 (FLC3 PDX cells; FLC3, 72 h): 5.15 µM | EC50 (FLC5 PDX cells; FLC5, 72 h): 12.6 µM | EC50 (FLC1 PDX cells; FLC1, 72 h): 2.98 µM | EC50 (FLC2 PDX cells; FLC2, 72 h): 3.85 µM | EC50 [1]: > 10 µM | EC50 (FLC4 PDX cells; FLC4, 72 h): 2.09 µM

Cc1cc(Nc2cc(N3CCN(C)CC3)nc(/C=C/c3ccccc3)n2)n[nH]1 [ENMD-2076]
EC50 (FLC PDX cells; Homo sapiens, read-out: EC50 against the PDX cells): > 5 µM | Efficacy ranking in the screen (FLC PDX cells): 123 | Synergy with A1331852 (FLC5 cells): All drugs, apart from ENMD-2076 and uprosertib, showed some synergy | IC50 (AURKA): […]

O=S(=O)(NCCNC/C=C/c1ccc(Br)cc1)c1cccc2cnccc12 [H89]
EC50 (FLC3 PDX cells; FLC3, 72 h): 18.2 µM | Therapeutic window for FLC over PHH (FLC PDX cells): no therapeutic window | Ki (PKG): 0.48 µM | EC50 (FLC5 PDX cells; FLC5, 72 h): 9.49 µM | EC50 (FLC1 PDX cells; FLC1, 72 h): 5.82 µM | EC50 (FLC2 PDX cells; FLC2, 72 h): 23.9 µM | EC50 [1]: 41.5 µM | Ki (PKA): 0.048 µM | EC50 (FLC4 PDX cells; FLC4, 72 h): 20.9 µM

CC(C)c1c2cc(-c3ccnc(NC4CCC(NC5CCOCC5)CC4)n3)ccc2nn1C (stereo not shown) [LY2857785]
Sensitivity of cells tested directly from patients [2]: some sensitivity | Effect of N-acetyl cysteine (NAC) on the toxicity of the drug (FLC1 cells): mildly attenuated

Cc1ccc(S(=O)(=O)c2ccc([N+](=O)[O-])o2)cc1 [NSC697923]
Efficacy ranking in the screen (FLC PDX cells): 7 | Sensitivity of cells tested directly from patients [2]: blunted response | Drug sensitivity of FLC.T6 compared with derived PDX FLC6 (EC50) [2]: outliers | Effect of N-acetyl cysteine (NAC) on the toxicity of the drug (FLC1 cells): completely abrogated

CCc1c2c(nc3ccc(O)cc13)-c1cc3c(c(=O)n1C2)COC(=O)[C@]3(O)CC [SN-38]
Effect on FLC PDX cells in vitro (dose response, normalized percent survival) (FLC PDX cells): effective only against FLC1,3,4 | Efficacy ranking in the screen (FLC PDX cells): 13 | Sensitivity of cells tested directly from patients [2]: sensitive | Drug sensitivity of FLC.T6 compared with derived PDX FLC6 (EC50) [2]: correlated well | Effect of N-acetyl cysteine (NAC) on the toxicity of the drug (FLC1 cells): no effect

Cn1ncc(Cl)c1-c1cc(C(=O)N[C@H](CN)Cc2ccc(F)c(F)c2)oc1Cl [Uprosertib (GSK2141795), Uprosertib]
EC50 (FLC3 PDX cells; Homo sapiens, 72 h): 0.87 µM | Efficacy ranking in the screen (FLC PDX cells): 28 | EC50 (FLC5 PDX cells; Homo sapiens, 72 h): 1.72 µM | Sensitivity of cells tested directly from patients [2]: some sensitivity | Synergy with A1331852 (FLC5 cells): All drugs, apart from ENMD-2076 and uprosertib, showed some synergy | Synergy with navitoclax (FLC5 cells): now synergized | EC50 (FLC1 PDX cells; Homo sapiens, 72 h): 0.049 µM | EC50 (FLC2 PDX cells; Homo sapiens, 72 h): 5.04 µM | EC50 ([1]; Homo sapiens, Hepatocyte): > 10 µM | Ki (Akt1): 0.18 µM | Ki (PKA): 0.002 µM | Ki (Akt3): 0.038 µM | EC50 (FLC4 PDX cells; Homo sapiens, 72 h): 0.91 µM

C=CC(=O)N1CC/C(=C\c2ccc(F)c([N+](=O)[O-])c2)C(=O)/C(=C/c2ccc(F)c([N+](=O)[O-])c2)C1 [VLX1570]
Efficacy ranking in the screen (FLC PDX cells): 31 | Sensitivity of cells tested directly from patients [2]: blunted response | Drug sensitivity of FLC.T6 compared with derived PDX FLC6 (EC50) [2]: outliers | Effect of N-acetyl cysteine (NAC) on the toxicity of the drug (FLC1 cells): completely abrogated

CCc1cnn2c(NCc3ccc[n+]([O-])c3)cc(N3CCCC[C@H]3CCO)nc12 [dinaciclib]
Sensitivity of cells tested directly from patients [2]: some sensitivity | Effect on PHH (dose response, normalized percent survival) [1]: toxic

CC(=O)[C@]1(O)Cc2c(O)c3c(c(O)c2[C@@H](O[C@H]2C[C@H](N)[C@H](O)[C@H](C)O2)C1)C(=O)c1ccccc1C3=O [idarubicin]
Effect on FLC PDX cells in vitro (dose response, normalized percent survival) (FLC PDX cells): showed an effect on some of the FLC PDX | Synergy with A1331852 (FLC5 cells): some synergy

CC(=O)c1cc2c(o1)C(=O)c1ccccc1C2=O [napabucasin]
c-Myc levels ([3]; 1 μM napabucasin, FLC cells, GAPDH control): dramatic decrease | Levels of MDM2, Bcl-xL, MCL1 and Cyclin D1 ([3]; napabucasin 1μM or 2μM, FLC6 cells): lowered the levels | Sensitivity of cells tested directly from patients [2]: sensitive | Drug sensitivity of FLC.T6 compared with derived PDX FLC6 (EC50) [2]: correlated well | Effect of N-acetyl cysteine (NAC) on the toxicity of the drug (FLC1 cells): partially attenuated | Tumor growth at 7 days (FLC1 PDX; [5]): 44% | Tumor growth at 14 days (FLC1 PDX; [5]): 52% | Average weight loss (FLC1 PDX; [6]): 6.7% | Ratio of tumor volume:mouse weight (FLC1 PDX; [6]): stable or decreased | Mitotic figures, Ki67 and pHH3 positive cells in tumors (FLC1 PDX; [7]): decrease | TUNEL positive cells in tumors (FLC1 PDX; [7]): small increase | Effect on PHH (dose response, normalized percent survival) [1]: no detectable effect

Cn1cc(CNCC2CCN(c3ncc(C(=O)NO)cn3)CC2)c2ccccc21 [quisinostat]
Tumor growth at 14 days (FLC PDX; 10mg/kg IP): 7% | Apoptosis as assayed by TUNEL (FLC PDX; 10mg/kg, after 14 days): no significant increase | Mitotic figures, Ki67 and pHH3 positive cells in tumors (FLC PDX; 10mg/kg, after 14 days): almost complete disappearance | Macroscopic assessment of tumors (FLC PDX; quisinostat 10mg/kg daily IP, 14 days): necrosis in the drug treated tumors | Sensitivity of cells tested directly from patients [2]: sensitive | Effect of N-acetyl cysteine (NAC) on the toxicity of the drug (FLC1 cells): mildly attenuated

Cc1ccc(NC2=CC(=O)c3sc(C)nc3C2=O)cc1 [ryuvidine]
Effect on FLC PDX cells in vitro (dose response, normalized percent survival) (FLC PDX cells): effective against all PDX lines | Efficacy ranking in the screen (FLC PDX cells): third | EC50 (FLC PDX cells; read-out: EC50 against FLC PDX in vitro, across all FLC PDX lines): 0.02 to 0.2 µM | Effect of N-acetyl cysteine (NAC) on the toxicity of the drug (FLC1 cells): completely abrogated | EC50 [1]: > 10 µM

CC[C@@]1(O)C(=O)OCc2c1cc1n(c2=O)Cc2cc3c(CN(C)C)c(O)ccc3nc2-1 [topotecan]
Synergy with A1331852 (FLC5 cells): some synergy

CC(=O)Nc1cccc(-n2c(=O)n(C3CC3)c(=O)c3c(Nc4ccc(I)cc4F)n(C)c(=O)c(C)c32)c1 [trametinib]
Result in primary screen (normalized percent survival) [4]: None | Synergy with A1331852 (FLC5 cells): some synergy

CC1(C)CCC(CN2CCN(c3ccc(C(=O)NS(=O)(=O)c4ccc(NCC5CCOCC5)c([N+](=O)[O-])c4)c(Oc4cnc5[nH]ccc5c4)c3)CC2)=C(c2ccc(Cl)cc2)C1 [venetoclax]
Effect on FLC PDX cells in vitro (dose response, normalized percent survival) (FLC PDX cells): minimal activity | Efficacy ranking in the screen (FLC PDX cells): towards the bottom of the ranking | Synergy with panobinostat (ZIP synergy score) (FLC1,3,5 cells): no synergy

CNC(=O)c1cccc(-c2ccc3c(N4CCOC[C@@H]4C)nc(N4CCOC[C@@H]4C)nc3n2)c1 [visusertib]
Synergy with A1331852 (FLC5 cells): some synergy

Aurora Kinase Inhibitor I
EC50 (FLC PDX cells; read-out: EC50 against the PDX cells): 1 to 4 µM | IC50 (AURKA): 0.0034 µM

SBI-0640756
Therapeutic window for FLC over PHH (FLC PDX cells): clear therapeutic window | Efficacy ranking in the screen (FLC PDX cells): 19 | Sensitivity of cells tested directly from patients [2]: sensitive | Effect of N-acetyl cysteine (NAC) on the toxicity of the drug (FLC1 cells): completely abrogated
